Results as given in patent US12071488B2, “Method of sensitizing cancer cells to anti-cancer treatment” (TWO TO BIOTECH LTD., priority 2017, dated 2024).

Columns and labels:
HER2 = HER2 immunohistochemistry of MDA-MB-231 tumor sections from nude mice; type: in vivo, Balb/C Nude mice; details: mice with MDA-MB-231 tumors; APC1 350 μg per mouse, three times per week, two weeks; vs saline
Protocol: MDA-MB-231 cells were grown in DMEM medium with Hepes (Gibco 41965-039) containing 10% heat inactivated Fetal Bovine Serum (Biological industries, #04-121-1A) and 1% Pen-Strep antibiotic (Biological industries, 03-031-1B) inside a 175 cm^2 flask (Nunc 178883). The cells were incubated at 37° C. in the presence of 5% CO2 and 95% humidity. The other cancer cells injected into mice (namely OV90 and Panc1) were prepared in a similar manner.
When a sufficient number of cells were present, the cells were centrifuged at 300 g for 5 minutes. The supernatant was discarded and 5-10 ml PBS (Biological Industries, #02-023-5A) was added to the cell pellet in order to wash the remaining medium. The cells were centrifuged again (same speed and time), the supernatant was discarded and 5-10 ml Saline was added to the cells. At this stage the cells were counted under a light microscope using a Hemocytometer, and saline was accordingly added to reach a concentration of 8×10^6 cells/200 μl.
Female Balb/C Nude mice (as detailed above) were retained in the Inventor's animal facility for at least 24 hours. Next all mice were intraperitoneally injected with 8×10^6 cells (in 200 μl saline) using a 27 G needle.
APC1 peptide was diluted in saline to the appropriate concentration in order to inject a dose of 350 μg/mouse. After the tumors reached the size of 0.5 cm×0.5 cm (usually 5 days) treatment of mice began. […]

MDA-MB-468 cells = experiment: Resazurin cell viability assay with APC1 and cisplatin or doxorubicin, MDA-MB-468 cells; type: cell-based, human; details: MDA-MB-468 pre-incubated with APC1 250 μg/ml; doxorubicin 0.3, 0.5, 1 μM, 48 hours; concentration dependent
Protocol: Cells treated with APC1 were seeded with APC1 at 250 μg/ml. The cells were incubated overnight.
Then the media was aspirated from the plates, and 100 μl of the treatment solutions were added to the appropriate wells, each treatment in triplicates. The cells were incubated for 48 hours.

[1] = system: pancreatic cancer cells BxPC3; experiment: Glutathione level in pancreatic cancer cells treated with APC1; type: cell-based, human; details: pancreatic cancer cells (FIG. 18B)
Protocol: Gluthatione Assay Kit (Sigma CS0260);
Cell lines (MDA-MB-231, MDA-MB-468) were grown in 75 cm^2 cell culture flask, reached 80-90% confluence. The cells were treated with APC1 (250 μg/ml, 2 times per week for 1 week).
Cells were washed twice with 10 ml PBS, PBS (5 ml) was added and the cells were collected by scrapping, centrifuged at 300G, 4° C. for 5 minutes, the supernatant was then discarded and the cells were treated with APC1 as indicated above. The values of the Glutathione Standard Solutions were used to determine the standard curve and the delta A412/min equivalent to 1 nmole of reduced glutathione per well was calculated according to manufacturer's instructions.
As detailed above, the ovarian cancer cells OV90 and OV3, the pancreatic cancer cells BxPC3 and Panel and the TNBC cancer cells MDA-MB-231 and MDA-MB-468 were treated with APC1 and then the relative glutathione levels in these cells was measured as detailed above.

EKGAAFSPIYPRRK (C terminal peptide of KTPAF50) [APC1, polypeptide consisting of the 14 C-terminal amino acid residues of the peptide KTPAF50]
HER2 expression on the cell surface of tumor cells (immunohistochemistry) (HER2): clear HER2 expression
sensitivity to doxorubicin (relative cell viability) (MDA-MB-468 cells): increased the sensitivity
level of glutathione [1]: decreased
